{"source": "paper PMC7642415", "about": "“Perturbed structural dynamics underlie inhibition and altered efflux of the multidrug resistance pump AcrB” (Nature Communications, 2020)", "key": {"AcrB [1]": {"target": "T1, AcrB (Escherichia coli, UniProt P31224)", "T1 construct": "full-length AcrB with C-terminal 6xHis tag, in DDM micelles", "test": "differential HDX-MS on purified AcrB WT", "assay_type": "binding"}, "AcrB [2]": {"target": "T2, AcrB (Escherichia coli, UniProt P31224, G288D)", "T2 construct": "full-length AcrB with C-terminal 6xHis tag, in DDM micelles", "T2 sequence (P31224 whole entry G288D)": "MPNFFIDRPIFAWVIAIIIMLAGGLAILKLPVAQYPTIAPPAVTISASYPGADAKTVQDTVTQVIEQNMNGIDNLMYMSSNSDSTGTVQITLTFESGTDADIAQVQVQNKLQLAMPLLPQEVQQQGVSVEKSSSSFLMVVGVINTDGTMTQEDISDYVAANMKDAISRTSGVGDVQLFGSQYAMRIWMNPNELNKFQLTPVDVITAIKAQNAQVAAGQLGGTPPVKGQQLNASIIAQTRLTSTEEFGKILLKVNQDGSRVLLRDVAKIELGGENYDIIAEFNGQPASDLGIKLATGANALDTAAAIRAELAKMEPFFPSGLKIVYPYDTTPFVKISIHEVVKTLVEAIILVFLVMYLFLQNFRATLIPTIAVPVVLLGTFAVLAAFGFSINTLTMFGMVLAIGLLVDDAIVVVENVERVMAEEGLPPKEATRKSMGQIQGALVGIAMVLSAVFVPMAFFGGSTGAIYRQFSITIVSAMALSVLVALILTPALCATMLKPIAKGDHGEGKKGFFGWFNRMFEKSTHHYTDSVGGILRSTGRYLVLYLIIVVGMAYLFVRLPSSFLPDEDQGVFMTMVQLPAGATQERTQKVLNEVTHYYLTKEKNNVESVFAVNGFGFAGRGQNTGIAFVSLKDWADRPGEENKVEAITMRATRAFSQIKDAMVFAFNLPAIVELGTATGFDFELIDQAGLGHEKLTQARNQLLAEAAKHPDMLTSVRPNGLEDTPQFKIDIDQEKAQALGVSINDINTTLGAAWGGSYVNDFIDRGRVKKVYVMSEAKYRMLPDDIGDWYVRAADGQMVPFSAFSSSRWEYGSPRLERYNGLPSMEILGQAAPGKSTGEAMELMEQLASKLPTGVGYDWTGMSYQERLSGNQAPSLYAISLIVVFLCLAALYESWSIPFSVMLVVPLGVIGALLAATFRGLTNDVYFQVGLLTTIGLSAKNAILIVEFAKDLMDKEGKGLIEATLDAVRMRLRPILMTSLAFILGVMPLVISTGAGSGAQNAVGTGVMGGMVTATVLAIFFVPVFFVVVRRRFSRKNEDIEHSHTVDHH", "assay_type": "binding"}}, "note": "Where a SMILES comes first, the peptide text is derived from it."}
{"molecule": "NC(N)=NCCC[C@H](NC(=O)[C@@H](N)Cc1ccccc1)C(=O)Nc1ccc2ccccc2c1", "note": "[PAβN, phenylalanine-arginine-β-naphthylamide] (HELM PEPTIDE1{F.R.[c1ccc2cc(N[*:1])ccc2c1]}$$$$V2.0)", "values": [{"measurement": "differential HDX-MS on purified AcrB WT", "setting": "AcrB [1]", "result": "inhibitor binding led to HDX reduction throughout extensive parts of the PC1/PC2 cleft of the drug-binding pockets"}, {"measurement": "differential HDX-MS on purified AcrB G288D", "setting": "AcrB [2]", "result": "Upon substrate binding, PAβN caused reduced HDX within the PC1/PC2 regions for AcrB^G288D"}]}
